Here are results for five compounds from patent US20200165653A1, “METHOD OF MEASURING FLUID SECRETION FUNCTION OF EPITHELIAL CELLS” (NATIONAL UNIVERSITY CORPORATION TOKYO MEDICAL AND DENTAL …, priority 2017, published 2020).

Where a name gives a salt, the structure may show the parent alone. No end group written: not given here.

Usually EC50 stands for the midpoint of the concentration-response curve.

Assay [1] deals with human intestinal organoids. The assay is described as follows: Organoid swelling observed by phase contrast / time-lapse imaging. It is filed as cell-based. As to conditions: for swelling response induced by endogenous mediator: PGE2 10^−8 M, VIP 10^−7 M, ACh 10^−3 M, histamine 10^−3 M, bradykinin 10^−5 M, serotonin 10^−3 M, up to 60 min after induction; for increase in cross-sectional area of organoids: 60 min after induction, same mediator concentrations as FIG. 11. How it is done:
The phase contrast images illustrated are prior to swelling induction and 60 minutes after swelling induction. Scale-bar: 100 μm. Induction was by the addition to a culture medium of: PGE2 (10^−8 M, (A)), VIP (10^−7 M, (B)), ACh (10^−3 M, (C)), histamine (10^−3 M, (D)), bradykinin (10^−5 M, (E)), and serotonin (10^−3 M, (F)).
Examination of Endogenous Mediator Candidates for Anion/Fluid Secretion Next, the fluid secretion function measurement method of the present embodiment was employed to examine the direct effect of various endogenous mediators that might possibly induce anion/fluid secretion from intestinal epithelial cells by testing six types of endogenous mediators to determine if they had the capability to induce a swelling response in organoids equivalent to that of forskolin-induced swelling.

Assay [2] deals with human jejunum-derived organoids. As to the kind of experiment: Organoid swelling response quantified by cross-sectional area with 3D-scanning system. The settings on record: for dose-response curve profile of swelling: human jejunal organoid, FIG. 12. It is filed as cell-based. Here is the method: The organoid cross-sectional area was measured using a 3D-Scanning System (Cell3 […], Screen Holdings, Kyoto, Japan) as the image analysis device 100. […] After the passage of a preliminary culture process of leaving for 24 hours after seeding, scanning was then performed both before and 30 min after the addition of the reagent subject to analysis. An image was acquired during scanning in auto-focus (AF) mode. The analysis parameters summarized in following Table 1 were set and the cross-sectional area of recognized organoids measured automatically. Note that changes over time due to the addition of a reagent subjected to analysis can be observed in the following manner. Namely, an object is imaged at time (T0) prior to adding a reagent subjected to analysis (T0 imaging process). Then the same object is imaged at time (TN) when a prescribed time (30 minutes, for example) has elapsed since adding the reagent subjected to analysis. Determination is then made as to whether or not the object is an object subjected to analysis. By performing the selection process and the determination process, the change over time observations are only made for objects determined be subjected to analysis thereby at both time T0 and time TN. Then in an area change calculation process, an area (A0) at time T0 and an area (AN) at time TN are calculated for the objects subject to analysis. The change over time (%) based thereon can be found, for example, using the following formula. (AN-A0)/A0×100 Using forskolin-induced swelling as a positive control, testing was next performed so see if such a swelling response could be quantified using the 3D-scanning system described. To optimize the quantification efficiency and accuracy, organoids were subjected to analysis after performing the preliminary culture process at one day after the last passage. This was done since the organoids generally held their cystic shape at this time point. The thresholds to recognize cross-section borders of each organoid were then optimized as set out in Table 1. Thus utilizing the fluid secretion function measurement method of the present embodiment enables drug response screening to be performed at the same time as determining the dose-dependency curves of a limited number of test reagents. Whether or not the present system could determine the dose-dependency curves of forskolin was thereby tested. The dose-dependency curve for forskolin-induced swelling when using a human jejunum-derived organoids was thereby found to be expressed by a standard sigmoid shaped curve, with the log EC50 value thereof calculated as -7.58 (FIG. 10).

For the compound `NCCc1c[nH]c2ccc(O)cc12` [serotonin, serotonin hydrochloride], in assay [1], the “swelling response induced by endogenous mediator” value (“swelling response induced” below) was “did not exhibit a clear effect”.
`C=C[C@@]1(C)CC(=O)[C@]2(O)[C@@]3(C)[C@@H](O)CCC(C)(C)[C@@H]3[C@H](O)[C@H](OC(C)=O)[C@@]2(C)O1` [forskolin]: in assay [2] (forskolin 10^−5 M, observed up to 240 min, area change calculation), the “time of continuous linear swelling response after stimulation” value was “up to 30 min”. The EC50 in assay [2] (human small intestinal (jejunum-derived) organoids, sigmoid dose-dependency curve, average of at least three independent tests, value is log EC50, read-out: log EC50 of forskolin-induced swelling (converted)) was 26.3 nM. Moreover, the “time for which swelling continued” value in assay [1] (small intestinal organoids, forskolin 10^−5 M) was “at least 60 min”.
“vasoactive intestinal polypeptide (HSDAVFTDNYTRLRKQMAVKKYLNSILN; ends and bridges not checked; UniProt P01282 125-152, looked up) [VIP, endogenous mediator acting through Gs-coupled receptors]”: the “dose-response curve profile of swelling” value in assay [2] is listed as “clear sigmoid-shaped response curve”. For the same compound, in assay [1], the “increase in cross-sectional area of organoids” value (shortened to “increase”) is listed as “large overall increase”; the “swelling response induced” value is “rapid and continuous response”.
Turning to `NCCc1c[nH]cn1` [histamine], in assay [2], the “dose-response curve profile of swelling” value is on record as “markedly lower response profile”. For the same compound, in assay [1], the “increase” value was “smaller than for PGE2 or VIP”; the “swelling response induced” value was “slow and limited response”.
For the compound `CCCCC[C@H](O)/C=C/[C@H]1[C@H](O)CC(=O)[C@@H]1C/C=C\CCCC(=O)O` [PGE2, prostaglandin E2], the “dose-response curve profile of swelling” value in assay [2] is on record as “clear sigmoid-shaped response curve”. In assay [1], the “increase” value is given as “large overall increase”; the “swelling response induced” value was “rapid and continuous response”.
